Measurements taken from paper PMC3582038 (Bioorganic & medicinal chemistry, 2012).
In brackets after ≈: the same amount, converted by molar mass. Marks after values point to notes of the source that are not given here.

What was measured:
[1] = In vivo pharmacokinetics in rats; settings: for toxicity in both administration modes: IV 10 mg/kg and PO 100 mg/kg; for unbound peak plasma concentration as multiple of the MIC: peak plasma concentration converted to unbound; for half-life: male, Sprague-Dawley, rat, plasma, iv, 10 mg/kg; for fe (fraction of dose excreted unchanged in urine): mean (SD)
[2] = tested on: Strep. pyogenes ATCC 700294; assay: Antibacterial spectrum MIC, S. pyogenes; assay type: cell-based; settings: Streptococcus pyogenes, ATCC700294, read-out: MIC S. pyogenes
E. coli K12 ΔtolC = assay type: cell-based; settings: efflux pump deficient
M. tuberculosis = assay: Antituberculosis MIC, microbroth dilution; assay type: cell-based; settings: M. tuberculosis MIC relative to compound 11
[3] = rats, based on a 10 mg/kg IV dose; ref [21],[22] (Linezolid), [23],[24] (Ofloxacin); cited from earlier work

Compound	toxicity in both administration modes ([1]; rats)	unbound peak plasma concentration as multiple of the MIC ([1]; rats, IV 10 mg/kg) [times the MIC]	MIC E. coli ΔtolC (E. coli K12 ΔtolC) [µg/mL]	further results
O=[N+]([O-])c1ccc(C2=NOC(c3ccc(N4CCCCC4)cc3)C2)o1 (stereo not shown) [Compound 1]	non-toxic	4.6		
O=C1COCCN1c1ccc(C2CC(c3ccc([N+](=O)[O-])o3)=NO2)cn1 (stereo not shown) [Compound 19, 4-(5-(3-(5-nitrofuran-2-yl)-4,5-dihydroisoxazol-5-yl)pyridin-2-yl)morpholin-3-one]				MIC [2]: 1000 µg/mL (≈ 2800 µM)
O=[N+]([O-])c1ccc(C2=NOC(c3ccc(N4CCOCC4)cc3)C2)o1 (stereo not shown) [Compound 6, 4-(4-(3-(5-Nitrofuran-2-yl)-4,5-dihydroisoxazol-5-yl)phenyl)morpholine]	non-toxic	5.0		
CN1CCN(c2ccc(C3CC(c4ccc([N+](=O)[O-])o4)=NO3)cn2)C(=O)C1 (stereo not shown) [Compound 16, 4-methyl-1-(5-(3-(5-nitrofuran-2-yl)-4,5-dihydroisoxazol-5-yl)pyridin-2-yl)piperazin-2-one]			6.25 (≈ 16.8 µM)	
O=[N+]([O-])c1ccc(C2=NOC(c3ccc(N4CC[S+]([O-])CC4)cc3)C2)o1 (stereo not shown) [Compound 12, 4-(4-(3-(5-nitrofuran-2-yl)-4,5-dihydroisoxazol-5-yl)phenyl)thiomorpholine 1-oxide]				fold weaker MIC value than 11 (M. tuberculosis): 8 fold
CN1CCN(c2ccc(C3CC(c4ccc([N+](=O)[O-])o4)=NO3)cc2)C(=O)C1 (stereo not shown) [Compound 15, 4-methyl-1-(4-(3-(5-nitrofuran-2-yl)-4,5-dihydroisoxazol-5-yl)phenyl)piperazin-2-one]		0.71		half-life [1]: 36.6 to 43.2 min; toxicity observed after IV dosing ([1]; rats, IV 10 mg/kg): seizures and death in one animal; deaths after oral administration ([1]; rats, PO 100 mg/kg): No animals died; fe (fraction of dose excreted unchanged in urine) ([1]; rats): 0.68 (0.44) %
O=[N+]([O-])c1ccc(C2=NOC(c3ccc(N4CCOCC4)c(F)c3)C2)o1 (stereo not shown) [Compound 8, 4-(2-Fluoro-4-(3-(5-nitrofuran-2-yl)-4,5-dihydroisoxazol-5-yl)phenyl)morpholine]			6.25 (≈ 17.3 µM)	
CC1COc2c(N3CCN(C)CC3)c(F)cc3c(=O)c(C(=O)O)cn1c23 (stereo not shown) [Ofloxacin]				AUCo0-∞ [3]: 6.1–11.8 ^* hr mg/L
O=[N+]([O-])c1ccc(C2=NOC(c3ccc(N4CCOCC4)nc3)C2)o1 (stereo not shown) [Compound 7, 4-(5-(3-(5-Nitrofuran-2-yl)-4,5-dihydroisoxazol-5-yl)pyridin-2-yl)morpholine]	non-toxic	9.8	6.25 (≈ 18.2 µM)	half-life [1]: 36.6 to 43.2 min; fe (fraction of dose excreted unchanged in urine) ([1]; rats): 0.021 (0.01) %
